Reference: patent US10143201B2, “Fungicidal compositions” (Syngenta Crop Protection LLC, priority 2007, dated 2018)
“And” between values parts separate entries of the source, which are not always exact repeats. Identical values can stand only once. Like-named read-outs stand apart in the source and are kept apart here.

Key:
[1] = test system: Colletotrichum lagenarium (syn. Glomerella lagenarium); assay: Fungicidal action against Colletotrichum lagenarium (anthracnose of cucurbits), microtiter growth inhibition; type: cell-based; conditions: Colletotrichum orbiculare; compound alone, 0.1250 ppm
Method: (§1) Example B10: Fungicidal Action Against Colletotrichum lagenarium (Syn. Glomerella lagenarium), Anthracnose of Cucurbits Conidia of the fungus from cryogenic storage are directly mixed into nutrient broth (PDB potato dextrose broth). After placing a (DMSO) solution of the test compounds into a microtiter plate (96-well format) the nutrient broth containing the fungal spores is added. The test plates are incubated at 24 C and the inhibition of growth is evaluated after 3 days.

Gaeumannomyces graminis = assay: Fungicidal action against Gaeumannomyces graminis (take-all of cereals), microtiter growth inhibition; type: cell-based; conditions: for inhibition at 0.0039 ppm / inhibition at 0.0078 ppm / inhibition at 0.0625 ppm / inhibition at 0.0313 ppm: read-out: % activity; for inhibition at 0.25 ppm: 0.2500 ppm; for inhibition at 0.5 ppm: 0.5000 ppm
Method: Example B7: Fungicidal Action Against Gaeumannomyces graminis (Take-all of Cereals)
as §1, with “Mycelial fragments” for “Example B10: Fungicidal Action Against Colletotrichum lagenarium (Syn. Glomerella lagenarium), Anthracnose of Cucurbits Conidia”, “4” for “3”

[2] = test system: Cercospora arachidicola (syn. Mycosphaerella arachidis); assay: Fungicidal action against Cercospora arachidicola (brown leaf spot of groundnut), microtiter growth inhibition; type: cell-based; conditions: for inhibition at 0.0039 ppm / inhibition at 0.0078 ppm: read-out: % activity; for inhibition at 0.125 ppm: 0.1250 ppm
Method: Example B8: Fungicidal Action Against Cercospora arachidicola (Syn. Mycosphaerella arachidis), Brown Leaf Spot of Groundnut (Peanut)
as §1, with “Conidia” for “Example B10: Fungicidal Action Against Colletotrichum lagenarium (Syn. Glomerella lagenarium), Anthracnose of Cucurbits Conidia”, “7” for “3”

Septoria tritici = assay: Fungicidal action against Septoria tritici (leaf blotch), microtiter growth inhibition; type: cell-based; conditions: for % activity: alone
Method: Example B3: Fungicidal Action Against Septoria tritici (Leaf Blotch)
(§2) Conidia of the fungus from cryogenic storage are directly mixed into nutrient broth (PDB potato dextrose broth). After placing a (DMSO) solution of the test compounds into a microtiter plate (96-well format) the nutrient broth containing the fungal spores is added. The test plates are incubated at 24° C. and the inhibition of growth is evaluated after 4 days. The expected fungicidal action is calculated according to the Colby method.

Pyrenophora teres = assay: Fungicidal action against Pyrenophora teres (net blotch), microtiter growth inhibition; type: cell-based
Method: Example B6: Fungicidal Action Against Pyrenophora teres (Net Blotch)
as §2

[3] = test system: Pseudocercosporella herpotrichoides (syn. Tapesia yallundae); assay: Fungicidal action against Pseudocercosporella herpotrichoides (eye spot of cereals), microtiter growth inhibition; type: cell-based; conditions: for % activity: alone
Method: Example B5: Funicidal Action Against Pseudocercosporella herpotrichoides (Syn. Tapesia yallundae), Eye Spot of Cereals
as §2

Alternaria solani = assay: Fungicidal action against Alternaria solani (early blight tomato/potato), microtiter growth inhibition; type: cell-based; conditions: for % activity: alone
Method: Example B4: Fungicidal Action Against Alternaria solani (Early Blight Tomato/Potato)
as §2, with “after 3” for “after 4”

Phakopsora pachyrhizi = assay: Action against Asian soybean rust, leaf disc test; type: in vivo; conditions: 14 days after inoculation
Method: Example B-1: Action Against Asian Soybean Rust (Phakopsora pachyrhizi)—Leaf Disc Test
Whole soybean plants (variety brand Williams82) are treated with the recited active ingredients 4 weeks after planting. 1 day after spraying leaf disks are cut from the first trifoliate leaf. Five repetitions at each rate are conducted. The leaf disks are inoculated with Phakopsora pachyrhizi (Asian soybean rust) one day after treatment. Evaluation of the leaf disks is conducted fourteen days after inoculation and the mean percent infestation of the five repetitions is calculated. Standard EC100 formulations are used. The rates of the active ingredients used are given in Table B1 as g active ingredient (a.i.)/ha.

[4] = test system: Monopraphella nivalis (syn. Microdochium nivale, Fusarium nivale); assay: Fungicidal action against Monopraphella nivalis (snow mould, foot rot of cereals), microtiter growth inhibition; type: cell-based; conditions: compound alone
Method: Example B9: Fungicidal Action Against Monopraphella nivalis (Syn. Microdochium nivale, Fusarium nivale), Snow Mould, Foot Rot of Cereals
as §2, with “24 C” for “24° C.”, “days.” for “days. The expected fungicidal action is calculated according to the Colby method.”

Botrytis cinerea = assay: Fungicidal action against Botrytis cinerea (gray mould), microtiter growth inhibition; type: cell-based; conditions: for % activity: alone
Method: Example B2: Fungicidal Action Against Botrytis cinerea (Gray Mould)
as §2

[5] = Mycosphaerella arachidis, compound alone, 0.0313 ppm
[6] = Gaeumannomyces graminis, compound alone, 0.0039 ppm
[7] = Gaeumannomyces graminis, compound alone, 0.0078 ppm
[8] = Gaeumannomyces graminis, compound alone, 0.0625 ppm
[9] = Mycosphaerella arachidis, compound alone
[10] = Zymoseptoria tritici, read-out: % activity
[11] = Pyrenophora teres, read-out: % activity
[12] = Oculimacula yallundae, read-out: % activity
[13] = Botrytis cinerea, read-out: % activity
[14] = Gaeumannomyces graminis, compound alone

CC(C)C1CCC(Cc2ccc(Cl)cc2)C1(O)Cn1cncn1 (centres unmarked) [Ipconazole]
20%: inhibition at 0.125 ppm [1]

Cn1cc(C(=O)Nc2cccc3c2C2CCC3C2=C(Cl)Cl)c(C(F)F)n1 (centres unmarked) [Compound A-1.1, 3-difluoromethyl-1-methyl-1H-pyrazole-4-carboxylic acid (9-dichloromethylidene-benzonorbornene-5-yl)amide]
50%: % activity (Septoria tritici; 0.1250 ppm) | % activity (Pyrenophora teres; 0.2500 ppm, alone) | % activity (Pyrenophora teres; compound alone, 0.2500 ppm) | % activity (Alternaria solani; 0.0625 ppm) | % activity (Alternaria solani; 0.1250 ppm) | % activity (Alternaria solani; 0.2500 ppm) | % activity ([4]; 0.0625 ppm)
36%: % Control of Phakopsora pachyrhizi (Phakopsora pachyrhizi; 31.25 g a.i./ha) | % Control of Phakopsora pachyrhizi (Phakopsora pachyrhizi; 62.5 g a.i./ha)
0%: % activity ([2]; compound alone, 0.0039 ppm) | % activity ([2]; compound alone, 0.0078 ppm) | % activity (Pyrenophora teres; 0.0078 ppm, alone) | % activity ([3]; 0.0039 ppm) | % activity ([3]; 0.0078 ppm) | % activity (Alternaria solani; 0.0078 ppm) | % activity (Botrytis cinerea; 0.0156 ppm) | % activity (Botrytis cinerea; 0.0313 ppm)
50% and 70%: % activity (Gaeumannomyces graminis; compound alone, 0.0156 ppm) | % activity (Pyrenophora teres; compound alone, 0.5000 ppm) | % activity (Botrytis cinerea; 0.5000 ppm)
20%: % activity ([2]; compound alone, 0.0156 ppm) | % activity (Septoria tritici; 0.0625 ppm) | % activity (Pyrenophora teres; 0.0313 ppm, alone) | % activity (Pyrenophora teres; 0.0625 ppm, alone) | % activity (Pyrenophora teres; 0.1250 ppm, alone) | % activity (Pyrenophora teres; compound alone, 0.0313 ppm) | % activity (Pyrenophora teres; compound alone, 0.0625 ppm) | % activity (Alternaria solani; 0.0156 ppm) | % activity (Alternaria solani; 0.0313 ppm) | % activity ([4]; 0.0313 ppm) | % activity (Botrytis cinerea; 0.0625 ppm) | % activity (Botrytis cinerea; 0.1250 ppm)
82%: % Control of Phakopsora pachyrhizi (Phakopsora pachyrhizi; 125 g a.i./ha)
90%: % activity (Septoria tritici; 0.5000 ppm) | % activity ([4]; 0.1250 ppm) | % activity (Botrytis cinerea; 1.0000 ppm)
70%: % activity ([2]; compound alone, 0.0313 ppm) | % activity (Septoria tritici; 0.2500 ppm) | % activity (Pyrenophora teres; compound alone, 1.0000 ppm) | % activity (Pyrenophora teres; compound alone, 2.0000 ppm) | % activity ([3]; 0.0625 ppm)
87%: % Control of Phakopsora pachyrhizi (Phakopsora pachyrhizi; 250 g a.i./ha)

Cn1cc(C(=O)Nc2ccc(F)cc2-c2ccc(Cl)c(Cl)c2)c(C(F)F)n1 [Compound B-5.11, 3-difluoromethyl-1-methyl-1H-pyrazole-4-carboxylic acid (3′,4′-dichloro-5-fluoro-1,1′-biphenyl-2-yl)-amide]
20%: inhibition at 0.0156 ppm ([2]; Mycosphaerella arachidis, compound alone, 0.0156 ppm) | inhibition at 0.25 ppm ([4]; Microdochium nivale, 0.2500 ppm)
70%: inhibition at 0.0313 ppm [2, 5]
0%: inhibition at 0.0039 ppm ([2]; Mycosphaerella arachidis, compound alone, 0.0039 ppm) | inhibition at 0.0078 ppm ([2]; Mycosphaerella arachidis, compound alone, 0.0078 ppm) | inhibition at 0.0313 ppm ([4]; Microdochium nivale, 0.0313 ppm) | inhibition at 0.0625 ppm ([4]; Microdochium nivale, 0.0625 ppm) | inhibition at 0.125 ppm ([4]; Microdochium nivale, 0.1250 ppm)

CCCC1COC(Cn2cncn2)(c2ccc(Cl)cc2Cl)O1 (centres unmarked) [Propiconazole]
70%: inhibition at 0.0625 ppm [2, 9]
0%: inhibition at 0.0039 ppm (Gaeumannomyces graminis; [6]) | inhibition at 0.0078 ppm (Gaeumannomyces graminis; [7]) | inhibition at 0.0625 ppm (Gaeumannomyces graminis; [8])
20%: inhibition at 0.0313 ppm [2, 5] | inhibition at 1 ppm (Pyrenophora teres; Pyrenophora teres, compound alone, 1.0000 ppm, read-out: % activity)
50%: inhibition at 2 ppm (Pyrenophora teres; Pyrenophora teres, compound alone, 2.0000 ppm)
90%: inhibition at 0.125 ppm [2, 9]

N#Cc1c[nH]cc1-c1cccc2c1OC(F)(F)O2 [Fludioxonil, fludioxonil]
70%: inhibition at 0.125 ppm (Pyrenophora teres; [11]) | inhibition at 0.5 ppm (Alternaria solani; Alternaria solani, read-out: % activity, 0.5000 ppm, alone)
0%: inhibition at 0.0625 ppm (Septoria tritici; [10]) | inhibition at 0.125 ppm (Septoria tritici; [10]) | inhibition at 0.0078 ppm [3, 12] | inhibition at 0.0156 ppm [3, 12] | inhibition at 0.0078 ppm (Alternaria solani; Alternaria solani, read-out: % activity, 0.0078 ppm, alone) | inhibition at 0.0156 ppm (Alternaria solani; Alternaria solani, read-out: % activity, 0.0156 ppm, alone) | inhibition at 0.0313 ppm (Alternaria solani; Alternaria solani, read-out: % activity, 0.0313 ppm, alone) | inhibition at 0.0313 ppm (Botrytis cinerea; [13])
20%: inhibition at 0.0625 ppm (Pyrenophora teres; [11]) | inhibition at 0.25 ppm [3, 12] | inhibition at 0.5 ppm [3, 12] | inhibition at 1 ppm [3, 12] | inhibition at 2 ppm [3, 12] | inhibition at 0.0625 ppm (Alternaria solani; Alternaria solani, read-out: % activity, 0.0625 ppm, alone) | inhibition at 0.0625 ppm (Botrytis cinerea; [13])
90%: inhibition at 0.125 ppm (Botrytis cinerea; [13])
50%: inhibition at 0.25 ppm (Alternaria solani; Alternaria solani, read-out: % activity, 0.2500 ppm, alone)

C#CCOc1ccc(CCNC(=O)C(OCC#C)c2ccc(Cl)cc2)cc1OC (centres unmarked) [Mandipropamid, mandipropamid]
0%: inhibition at 0.0039 ppm (Gaeumannomyces graminis; Gaeumannomyces graminis) | inhibition at 0.0078 ppm (Gaeumannomyces graminis; Gaeumannomyces graminis) | inhibition at 0.0313 ppm (Gaeumannomyces graminis; Gaeumannomyces graminis) | inhibition at 0.0625 ppm (Gaeumannomyces graminis; Gaeumannomyces graminis) | inhibition at 0.0039 ppm ([2]; Mycosphaerella arachidis) | inhibition at 0.0078 ppm ([2]; Mycosphaerella arachidis) | inhibition at 0.125 ppm (Septoria tritici; [10]) | inhibition at 0.25 ppm (Septoria tritici; [10]) | inhibition at 0.5 ppm (Septoria tritici; [10]) | inhibition at 0.5 ppm (Pyrenophora teres; [11]) | inhibition at 1 ppm (Pyrenophora teres; [11])

OC(Cc1ccccc1Cl)(Cn1nc[nH]c1=S)C1(Cl)CC1 (centres unmarked) [Prothioconazole]
50%: inhibition at 0.0625 ppm (Gaeumannomyces graminis; [8])
70%: inhibition at 0.0625 ppm [2, 9]
90%: inhibition at 0.25 ppm (Gaeumannomyces graminis; [14]) | inhibition at 0.5 ppm (Gaeumannomyces graminis; [14])

O=C(NCCc1ncc(C(F)(F)F)cc1Cl)c1ccccc1C(F)(F)F [Compound B-5.12, N-{2-[3-chloro-5-(trifluoromethyl)pyridin-2-yl]ethyl}-2-(trifluoromethyl)benzamid]
0%: inhibition at 0.0039 ppm (Gaeumannomyces graminis; [6]) | inhibition at 0.0078 ppm (Gaeumannomyces graminis; [7]) | inhibition at 0.0156 ppm (Gaeumannomyces graminis; Gaeumannomyces graminis, compound alone, 0.0156 ppm) | inhibition at 0.0313 ppm (Gaeumannomyces graminis; Gaeumannomyces graminis, compound alone, 0.0313 ppm) | inhibition at 0.125 ppm (Gaeumannomyces graminis; Gaeumannomyces graminis, compound alone, 0.1250 ppm) | inhibition at 0.25 ppm (Gaeumannomyces graminis; [14]) | inhibition at 0.5 ppm (Gaeumannomyces graminis; [14]) | inhibition at 1 ppm (Gaeumannomyces graminis; Gaeumannomyces graminis, compound alone, 1.0000 ppm) | inhibition at 2 ppm (Gaeumannomyces graminis; Gaeumannomyces graminis, compound alone, 2.0000 ppm) | inhibition at 0.0313 ppm [2, 5] | inhibition at 0.0625 ppm [2, 9]
20%: inhibition at 0.125 ppm [2, 9] | inhibition at 0.25 ppm ([2]; Mycosphaerella arachidis, compound alone, 0.2500 ppm)

Cn1cc(C(=O)Nc2cccc3c2C2CCC3C2=C(Br)Br)c(C(F)F)n1 (centres unmarked) [Compound A-1.3, 3-difluoromethyl-1-methyl-1H-pyrazole-4-carboxylic acid (9-dibromomethylidene-benzonorbornene-5-yl)amide]
93%: % Control of Phakopsora pachyrhizi (Phakopsora pachyrhizi; 250 g a.i./ha)
36%: % Control of Phakopsora pachyrhizi (Phakopsora pachyrhizi; 31.25 g a.i./ha) | % Control of Phakopsora pachyrhizi (Phakopsora pachyrhizi; 62.5 g a.i./ha)
54%: % Control of Phakopsora pachyrhizi (Phakopsora pachyrhizi; 125 g a.i./ha)
